Measurements as given in patent publication US10508120B2, “TYK2 inhibitors and uses thereof” (Nimbus Lakshmi, Inc., priority 2017, dated 2019).

How the values were obtained:
[1] = molecular target: JAK2 kinase domain (JH1) (Homo sapiens (Human), UniProt O60674); experiment: JAK2 Radioactive Kinase Assay; format: biochemical; details: compound at 10 μM, ATP 10 μM; for inhibition at 10 µM: read-out: JAK2 JH1% Inhibition @ 10 μM
Summary of the method: (§1)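 Compounds were tested at a single concentration of 10 μM in a radiometric kinase format against each isolated kinase domain. Activity is reported as percent inhibition at that concentration.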

[2] = molecular target: human TYK2 (JH2domain-pseudokinase) (Homo sapiens (Human), UniProt P29597); experiment: TYK2 JH2 Domain Binding Assay (KINOMEscan)
Chain of human TYK2 (JH2domain-pseudokinase) (P29597 556-888): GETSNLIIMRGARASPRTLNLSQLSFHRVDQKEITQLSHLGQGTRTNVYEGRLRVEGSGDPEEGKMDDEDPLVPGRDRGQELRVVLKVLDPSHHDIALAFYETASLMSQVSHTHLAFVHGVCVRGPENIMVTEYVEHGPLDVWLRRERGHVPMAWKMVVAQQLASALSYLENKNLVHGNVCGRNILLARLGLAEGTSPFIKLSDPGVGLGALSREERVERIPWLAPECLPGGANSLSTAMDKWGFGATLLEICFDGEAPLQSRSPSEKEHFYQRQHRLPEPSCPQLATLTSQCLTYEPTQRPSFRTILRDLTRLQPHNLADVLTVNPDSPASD
Summary of the method: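 Competition binding of an NFkB-DBD fusion of human TYK2 JH2 (G556–D888), expressed in HEK293 and used as crude extract at <0.1 nM, against immobilized ligand beads; 1 h at room temperature in PBS/Tween/DTT/BSA buffer, 0.9% DMSO.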

[3] = molecular target: Tyk2 kinase domain (DH1) (Homo sapiens (Human), UniProt P29597); experiment: Tyk2 Radioactive Kinase Assay; format: biochemical; details: compound at 10 μM, ATP 10 μM; for inhibition at 10 µM: read-out: Tyk2 JH1% Inhibition @ 10 μM
Chain of Tyk2 kinase domain (DH1) (P29597 897-1176): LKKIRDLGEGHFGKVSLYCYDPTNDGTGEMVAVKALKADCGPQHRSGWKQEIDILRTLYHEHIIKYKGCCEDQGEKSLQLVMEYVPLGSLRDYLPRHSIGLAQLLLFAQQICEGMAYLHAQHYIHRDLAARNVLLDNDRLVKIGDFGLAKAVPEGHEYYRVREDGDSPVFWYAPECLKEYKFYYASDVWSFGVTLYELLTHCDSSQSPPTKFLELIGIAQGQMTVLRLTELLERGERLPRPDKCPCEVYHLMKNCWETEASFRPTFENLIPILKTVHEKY
Summary of the method: as §1

Chain of JAK2 kinase domain (JH1) (O60674 849-1124): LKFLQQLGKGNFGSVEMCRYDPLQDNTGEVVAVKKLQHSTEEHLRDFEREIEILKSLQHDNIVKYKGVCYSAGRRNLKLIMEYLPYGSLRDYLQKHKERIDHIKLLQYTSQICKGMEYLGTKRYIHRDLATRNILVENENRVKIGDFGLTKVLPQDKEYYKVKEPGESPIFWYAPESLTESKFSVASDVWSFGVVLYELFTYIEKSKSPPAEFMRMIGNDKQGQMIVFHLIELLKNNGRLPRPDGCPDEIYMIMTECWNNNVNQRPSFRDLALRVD

SMILES	inhibition at 10 µM [1] [%]	Kd [2] [nM]	inhibition at 10 µM [3] [%]	JAK2 JH1% Inhibition @ 10 μM [1]	Tyk2 JH1% Inhibition @ 10 μM [3]
CNc1cc(Nc2cccn([C@H]3CC[C@H](OC)CC3)c2=O)nc2c(C(=O)N[C@H]3CC[C@H]3O)cnn12 [I-561]		0.2 to 1		A (percent inhibition at 10 μM lower than 50)	A (percent inhibition at 10 μM lower than 50)
CNc1cc(Nc2cccn([C@@H]3CCOC[C@@H]3OC)c2=O)nc2c(C(=O)NC3CC3)cnn12 [I-567]	< 50	1 to 10	< 50		
CNc1cc(-n2cc(N3CCN(C)CC3)c3ncccc32)nc2c(C(=O)NC3CC3)cnn12 [I-574]	< 50	1 to 10	< 50		
CNc1cc(-n2cc(N3CCN(C)CC3)c3ncccc32)nc2c(C(=O)N[C@H]3C[C@H]3F)cnn12 [I-575]	< 50	1 to 10	< 50		
CNc1cc(Nc2cccn(CCOC3CC3)c2=O)nc2c(C(=O)NC3CC4(COC4)C3)cnn12 [I-576, 5-((1-(2-cyclopropoxyethyl)-2-oxo-1,2-dihydropyridin-3-yl)amino)-7-(methylamino)-N-(2-oxaspiro[3.3]heptan-6-yl)pyrazolo[1,5-a]pyrimidine-3-carboxamide]	< 50	1 to 10	< 50		
CNc1cc(Nc2cccn(CCOC3CC3)c2=O)nc2c(C(=O)NCC3(CO)CC3)cnn12 [I-577, 5-((1-(2-cyclopropoxyethyl)-2-oxo-1,2-dihydropyridin-3-yl)amino)-N-((1-(hydroxymethyl)cyclopropyl)methyl)-7-(methylamino)pyrazolo[1,5-a]pyrimidine-3-carboxamide]	< 50	0.2 to 1	< 50		
CNc1cc(Nc2c(F)ccn(-c3nccs3)c2=O)nc2c(C(=O)NC3CC3)cnn12 [I-581]	< 50	1 to 10	< 50		
CNc1cc(-c2cn(C(C)C)c3ncccc23)nc2c(C(=O)NCC3(CO)CC3)cnn12 [I-587]	< 50	0.2 to 1	< 50		
CNc1cc(-c2cn(C(C)C)c3ncccc23)nc2c(C(=O)NCC(C)(C)CO)cnn12 [I-588, N-(3-hydroxy-2,2-dimethylpropyl)-5-(1-isopropyl-1H-pyrrolo[2,3-b]pyridin-3-yl)-7-(methylamino)pyrazolo[1,5-a]pyrimidine-3-carboxamide]	< 50	0.2 to 1	< 50		
CNc1cc(Nc2cccn([C@@H]3CCOC[C@@H]3OC)c2=O)nc2c(C(=O)NC3CC3)cnn12 [I-594]		0.2 to 1		A (percent inhibition at 10 μM lower than 50)	A (percent inhibition at 10 μM lower than 50)
CNc1cc(Nc2cccn([C@H]3CCOC[C@H]3OC)c2=O)nc2c(C(=O)NC3CC3)cnn12 [I-595]	< 50	1 to 10	< 50		
CNc1cc(Nc2cccn(C3CCOCC3)c2=O)nc2c(C(=O)N[C@@H]3CC[C@H]3O)cnn12 [I-597]	< 50	0.2 to 1	< 50		
CNc1cc(Nc2cccnc2OC)nc2c(C(=O)N[C@@H]3COC[C@@H]3O)cnn12 [I-614]	< 50	1 to 10	< 50		
CNc1cc(Nc2cccnc2OC)nc2c(C(=O)N[C@H]3COC[C@H]3O)cnn12 [I-615]	< 50	< 0.2	< 50		
CNc1cc(-c2cn(CCN3CCN(C)CC3)c3ncccc23)nc2c(C(=O)NC3CC3)cnn12 [I-616]	< 50	< 0.2	< 50		
CNc1cc(-c2cn(CCN3CCN(C)CC3)c3ncccc23)nc2c(C(=O)N[C@H]3C[C@H]3F)cnn12 [I-617]	< 50	< 0.2	< 50		
CNc1cc(Nc2cccc(N3CC4(CCO4)C3)n2)nc2c(C(=O)NC3CC3)cnn12 [I-618]	< 50	< 0.2	< 50		
CNc1cc(Nc2cccc(N3CC4(CCO4)C3)n2)nc2c(C(=O)N[C@H]3C[C@H]3F)cnn12 [I-619]	< 50	< 0.2	< 50		

More lines, main results first:

inhibition at 10 µM [1] [%]	Kd [2] [nM]	inhibition at 10 µM [3] [%]	SMILES	JAK2 JH1% Inhibition @ 10 μM [1]	Tyk2 JH1% Inhibition @ 10 μM [3]
< 50	< 0.2	< 50	CNc1cc(Nc2cc(F)cn([C@@H]3CCCOC3)c2=O)nc2c(C(=O)N[C@H]3C[C@H]3F)cnn12 [I-558]		
< 50	< 0.2	< 50	CNc1cc(Nc2cccc([C@H]3CCCCO3)n2)nc2c(C(=O)NCC3(CO)CC3)cnn12 [I-564]		
< 50	< 0.2	< 50	CNc1cc(Nc2cccc([C@@H]3CCCCO3)n2)nc2c(C(=O)NCC3(CO)CC3)cnn12 [I-565]		
< 50	< 0.2	< 50	CNc1cc(Nc2cccn([C@@H]3CCC[C@H](OC)C3)c2=O)nc2c(C(=O)NC3CC3)cnn12 [I-568]		
< 50	< 0.2	< 50	CNc1cc(Nc2cccn(C3CCN(CCF)CC3)c2=O)nc2c(C(=O)NC3CC3)cnn12 [I-569, N-cyclopropyl-5-((1-(1-(2-fluoroethyl)piperidin-4-yl)-2-oxo-1,2-dihydropyridin-3-yl)amino)-7-(methylamino)pyrazolo[1,5-a]pyrimidine-3-carboxamide]		
< 50	< 0.2	< 50	CNc1cc(Nc2cccn(C3CCCOC3)c2=O)nc2c(C(=O)NCC(C)(C)CO)cnn12 (stereo not drawn) [I-571]		
< 50	< 0.2	< 50	CNc1cc(Nc2cccc([C@H]3CCCOC3)n2)nc2c(C(=O)NCC(C)(C)CO)cnn12 [I-579]		
< 50	< 0.2	< 50	CNc1cc(Nc2cccc([C@@H]3CCCOC3)n2)nc2c(C(=O)NCC(C)(C)CO)cnn12 [I-580]		
< 50	< 0.2	< 50	CNc1cc(-c2cn(CCN3CCOCC3)c3ncccc23)nc2c(C(=O)NC3CC3)cnn12 [I-582]		
< 50	< 0.2	< 50	CNc1cc(-c2cn(CCN3CCOCC3)c3ncccc23)nc2c(C(=O)N[C@H]3C[C@H]3F)cnn12 [I-583]		
< 50	< 0.2	< 50	CNc1cc(-c2cn(CCN3CCCCC3)c3ncccc23)nc2c(C(=O)NC3CC3)cnn12 [I-584, N-cyclopropyl-7-(methylamino)-5-(1-(2-(piperidin-1-yl)ethyl)-1H-pyrrolo[2,3-b]pyridin-3-yl)pyrazolo[1,5-a]pyrimidine-3-carboxamide]		
< 50	< 0.2	< 50	CNc1cc(Nc2cccc(N3CCOCC3)n2)nc2c(C(=O)NC3CC3)cnn12 [I-589]		
< 50	< 0.2	< 50	CNc1cc(Nc2cccn(-c3ncccc3F)c2=O)nc2c(C(=O)NCC(C)CO)cnn12 (stereo not drawn) [I-593, 5-((3′-fluoro-2-oxo-2H-[1,2′-b]pyridinyl-3-yl)amino)-N-(3-hydroxy-2-methylpropyl)-7-(methylamino)pyrazolo[1,5-a]pyrimidine-3-carboxamide]		
< 50	< 0.2	50 to 70	CNc1cc(Nc2cccn([C@@H]3CCCOC3)c2=O)nc2c(C(=O)NCC(C)(C)CO)cnn12 [I-598]		
< 50	< 0.2	< 50	CNc1cc(Nc2cccn([C@H]3CCCOC3)c2=O)nc2c(C(=O)NCC(C)(C)CO)cnn12 [I-599]		
< 50	< 0.2	< 50	CNc1cc(Nc2cccn(-c3cnn(C[C@@H]4CCOC4)c3)c2=O)nc2c(C(=O)NC3CC3)cnn12 [I-600]		
< 50	< 0.2	< 50	CNc1cc(Nc2cccn(-c3cnn(C[C@H]4CCOC4)c3)c2=O)nc2c(C(=O)NC3CC3)cnn12 [I-601]		
< 50	< 0.2	< 50	CNc1cc(Nc2cccc([C@H]3CCCOC3)n2)nc2c(C(=O)N[C@H]3CC[C@@H]3O)cnn12 [I-602]		
< 50	< 0.2	< 50	CNc1cc(Nc2cccc([C@H]3CCCOC3)n2)nc2c(C(=O)N[C@@H]3CC[C@@H]3O)cnn12 [I-604]		
< 50	< 0.2	< 50	CNc1cc(Nc2cccc([C@@H]3CCCOC3)n2)nc2c(C(=O)N[C@@H]3CC[C@@H]3O)cnn12 [I-605]		
< 50	< 0.2	< 50	CNc1cc(Nc2cccn([C@H]3CCN(C)C[C@@H]3F)c2=O)nc2c(C(=O)NC3CC3)cnn12 [I-608]		
< 50	< 0.2	< 50	CNc1cc(Nc2cccn(C3CCN(C)CC3)c2=O)nc2c(C(=O)N[C@@H]3CC[C@@H]3O)cnn12 [I-609]		
< 50	< 0.2	< 50	CNc1cc(Nc2cccc([C@@H]3CCCCO3)n2)nc2c(C(=O)N[C@@H]3CC[C@@H]3O)cnn12 [I-610]		
< 50	< 0.2	< 50	CNc1cc(Nc2cccc([C@H]3CCCCO3)n2)nc2c(C(=O)N[C@@H]3CC[C@@H]3O)cnn12 [I-611]		
< 50	< 0.2	< 50	CNc1cc(Nc2cccn([C@H]3CC[C@H](OC)CC3)c2=O)nc2c(C(=O)NCC(C)CO)cnn12 (stereo partly drawn) [I-613]		
